According to ChEMBL document CHEMBL4261633, “Butenolides from a marine-derived fungus Aspergillus terreus with antitumor activities against pancreatic ductal adenocarcinoma cells” (Bioorg Med Chem, 2018):

Legend:
Assay type in all cases: functional, cell-based
HepG2 = test: Antiproliferative activity against human HepG2 cells after 24 hrs by CCK8 assay; settings: HepG2, 24 h
PANC-1 = test: Antiproliferative activity against human PANC1 cells after 24 hrs by CCK8 assay; settings: PANC-1, 24 h
HCC1806 = test: Antiproliferative activity against human HCC1806 cells after 24 hrs by CCK8 assay; settings: HCC1806, 24 h
HT-29 = test: Antiproliferative activity against human HT-29 cells after 24 hrs by CCK8 assay; settings: HT-29, 24 h
BEAS-2B = test: Antiproliferative activity against human BEAS2B cells after 24 hrs by CCK8 assay

Compound	IC50 (HepG2) [µM]	IC50 (PANC-1) [µM]	IC50 (HCC1806) [µM]	IC50 (HT-29) [µM]	IC50 (BEAS-2B) [µM]
COC(=O)[C@]1(Cc2ccc(O)c(C[C@@H](O)C(C)C)c2)OC(=O)C(O)=C1c1ccc(O)cc1	> 20	> 20	> 20	> 20	> 20
COC(=O)[C@]1(Cc2ccc3c(c2)C[C@H](O)C(C)(C)O3)OC(=O)C(O)=C1c1ccc(O)cc1 [BUTYROLACTONE V]	> 20	> 20	> 20	> 20	> 20
COC(=O)[C@]1(Cc2ccc(O)c(CC3OC3(C)C)c2)OC(=O)C(O)=C1c1ccc(O)cc1 (stereo not given in full)	> 20	> 20	> 20	> 20	> 20
COC(=O)[C@]1(Cc2ccc(O)c(CC=C(C)C)c2)OC(=O)C(O)=C1c1ccc(O)cc1	> 20	> 20	> 20	> 20	> 20

Now from value to molecule, other results behind:

IC50 (HepG2) [µM]	IC50 (PANC-1) [µM]	IC50 (HCC1806) [µM]	IC50 (HT-29) [µM]	Compound	IC50 (BEAS-2B) [µM]
> 20	> 20	> 20	> 20	COC(=O)[C@]1(Cc2ccc3c(c2)C[C@H](C(C)(C)O)O3)OC(=O)C(O)=C1c1ccc(O)cc1 [BUTYROLACTONE IV]	> 20
> 20	> 20	> 20	> 20	COC(=O)[C@]1(Cc2ccc3c(c2)C=CC(C)(C)O3)OC(=O)C(O)=C1c1ccc(O)cc1	> 20
